Measured values from patent US20170369474A1, “COMPOUNDS, COMPOSITIONS AND METHODS OF USE” (Aquinnah Pharmaceuticals, Inc., priority 2014, published 2017).
pIC50: −log10 of the molar value. Where two headings read alike, the source gives them in different places.

Experiments:
[1] = test system: Embryonic mouse hippocampal neurons transduced with TDP-43 EGFP; assay: Neuroprotection assay (total dendrite length); type: cell-based; settings: compound at 10 times the IC50 value, treated DIV7, 9, 11; fixed DIV12
Method: CMF dissection buffer: 1× Hank's balanced salt solution (Ca—/Mg, 500 mL) and 10 mM HEPES, pH 7.25-7.3 (IM stock, 5 mL)
Plating media: MEM (Earle salts+/Glutamine, 95 mL), FBS (to 2.5%, 2.5 mL), Pen/Strep (1×, 1 mL), glutamine (1×, 1 mL), and D-glucose (0.6% w/v, 0.6 g)
Feeding media: neurobasal media (96 mL), B27 supplement (2 mL), Pen/Strep (1 mL), and glutamine (1 mL).
Embryonic mouse hippocampal neurons were cultured according to Kaech, S. and Banker, G. (2006) Nat Protoc 1:2406-2415 and dissected at […] from CD1 mice. Once all the hippocampi were removed, they were placed in a 15 mL conical Falcon tube on ice and brought to a final volume of 4.5 mL with CMF dissection buffer. 0.5 mL of a 2.5% trypsin-EDTA solution was then added, and the mixture was incubated at 37° C. for 15 min. […] Neurons were traced and analyzed using NeuronJ.
Results of the neuroprotection assay for exemplary compounds of the invention are summarized in Table 1, wherein A represents an average rescue total dendrite length of >150%; B represents an average rescue total dendrite length of 100-149%; C represents an average rescue total dendrite length of 50-99%; D represents an average rescue total dendrite length of 0-49%; E represents an average rescue total dendrite length of <0%; and ND signifies that the average rescue total dendrite length was not determined.

[2] = test system: C. elegans expressing A315T hTDP-43; assay: Neuroprotection of C. elegans; type: in vivo; settings: 34.8 μM; A315T transgenic animals, second day of adulthood
Method: Age synchronized C. elegans were cultured with 34.8 μM Compound 100 and the effect on the animal's movement and motor neurons were investigated. FIGS. 2A-2C show a comparison between the crawling speed of WT and Tg nematodes expressing wt (FIG. 2A), human wt (FIG. 2B), and A315T hTDP-43 (FIG. 2C) on the second day of adulthood.

[3] = test system: TDP-43 inclusions in PC12 cells stably expressing wild type (WT) TDP-43-GFP; assay: Dose response assay for TDP-43 inhibition; type: cell-based; settings: Rattus norvegicus, PC-12
Method: Exemplary compounds of the invention were evaluated for efficacy in inhibiting TDP-43 inclusions using a dose response assay. Briefly, PC12 cells stably expressing wild type (WT) TDP-43-GFP were stressed with 15 μM to induce TDP-43 inclusions. The cells were then treated with exemplary compounds of the invention and the inhibitory effect on TDP-43 inclusions was observed using fluorescent microscopy. The ratio of cells with TDP-43 inclusions was calculated based on the total number of cells with detectable GFP expression. A 12-point dose response curve was generated, and the IC50 for each compound tested was determined.

[4] = test system: TDP-43 aggregates in motor neurons generated from ALS patient-derived iPSCs; assay: Reduction of insoluble TDP-43 levels (immunoblot); type: cell-based; settings: 2 μM for 48 hours
Method: The cells were differentiated into motor neurons for 22 days, then treated with 2 μM of Compounds 100, 101, and Compound 7 for 48 hours. The cells were lysed and TDP-43 aggregate formation was detected by immunoblot.

| pIC50 ([3]; inhibition of TDP-43 inclusions, PC12 cells WT TDP-43-GFP, 12-point dose response, read-out: IC50) | Compound | Average Additive Dendrite Length (%) [1] | Neuroprotective effect on motor neurons [2] | Reduction of TDP-43 aggregates in the sarkosyl insoluble fraction [4] | pIC50 [3] |
| --- | --- | --- | --- | --- | --- |
| 6.60 to 7.00 | Cc1ccc(Cl)cc1NS(=O)(=O)c1c(C(=O)N2CCCC2)c(C)n(C)c1C [Compound 100, N-(5-chloro-2-methylphenyl)-1,2,5-trimethyl-4-(pyrrolidine-1-carbonyl)-1H-pyrrole-3-sulfonamide] | B (B represents an average rescue total dendrite length of 100-149%) | neuroprotective effect | reduced dimeric and multimeric TDP-43 aggregates |  |
|  | CCc1cccc(C)c1NS(=O)(=O)c1c(C(=O)N2CCCC2)c(C)n(C)c1C [Compound 101, N-(2-ethyl-6-methylphenyl)-1,2,5-trimethyl-4-(pyrrolidine-1-carbonyl)-1H-pyrrole-3-sulfonamide] | A (A represents an average rescue total dendrite length of >150%) |  | reduced dimeric and multimeric TDP-43 aggregates | 6.60 to 7.00 |
